Test results as given in ChEMBL document CHEMBL4052635, “Discovery of novel antitumor nitric oxide-donating β-elemene hybrids through inhibiting the PI3K/Akt pathway” (Eur J Med Chem, 2017).
Values belong to the molecule of their own block, whether it stands above or below them. The source made the active and inactive calls. The rule behind the calls is not given here.

What was measured:
[1] = tested on: SGC-7901; assay: Antiproliferative activity against human SGC7901 cells after 72 hrs by MTT assay; format: functional, cell-based; conditions: SGC-7901, 72 h
[2] = tested on: HeLa; assay: Antiproliferative activity against human HeLa cells after 72 hrs by MTT assay; format: functional, cell-based
[3] = Antiproliferative activity against human U87 cells after 72 hrs by MTT assay; format: functional, cell-based, U-87MG ATCC; conditions: U-87 MG
[4] = Induction of NO production at 100 uM in presence of 5.0 mM L-cysteine incubated for 120 mins measured every 15 mins by Griess assay
[5] = tested on: H22; assay: Antitumor activity against […] cells xenografted in ICR mouse assessed as tumor growth inhibition at 60 mg/kg, iv qd for 3 weeks relative to control; format: functional; conditions: 504 h, read-out: TGI
[6] = tested on: Mus musculus; assay: Toxicity in ICR mouse xenografted with […] cells assessed as body weight at 60 mg/kg, iv administered qd for 3 weeks (reference value: 22.9 +/- 0.4 g); format: organism-based; conditions: in vivo, 504 h
[7] = species on record: Homo sapiens; assay: Inhibition of PI3K/Akt activation in human U87 cells assessed as decrease in Bcl-2 protein expression after 72 hrs by Western blot method; format: cell-based
[8] = tested on: L02; assay: Cytotoxicity against human LO2 cells assessed as reduction in cell viability after 72 hrs by MTT assay; format: cell-based; conditions: L02, 72 h
[9] = tested on: U-87MG ATCC; assay: Antiproliferative activity against human U87 cells after 72 hrs in presence of NO scavenger hemoglobin/PTIO by MTT assay; format: functional, cell-based
[10] = Cell cycle arrest in human U87 cells assessed as accumulation at G1 phase at 0.5 nM after 72 hrs by propidium iodide staining based flow cytometry (reference value: 54.11%); format: functional, U-87MG ATCC
[11] = Cell cycle arrest in human U87 cells assessed as accumulation at G1 phase at 1 nM after 72 hrs by propidium iodide staining based flow cytometry (reference value: 54.11%); format: functional, U-87MG ATCC
[12] = Cell cycle arrest in human U87 cells assessed as accumulation at G1 phase at 2 nM after 72 hrs by propidium iodide staining based flow cytometry (reference value: 54.11%); format: functional, U-87MG ATCC
[13] = Cell cycle arrest in human U87 cells assessed as accumulation at G2 phase at 0.5 nM after 72 hrs by propidium iodide staining based flow cytometry (reference value: 18.86%); format: functional, U-87MG ATCC
[14] = Cell cycle arrest in human U87 cells assessed as accumulation at G2 phase at 1 nM after 72 hrs by propidium iodide staining based flow cytometry (reference value: 18.86%); format: functional, U-87MG ATCC
[15] = Cell cycle arrest in human U87 cells assessed as accumulation at G2 phase at 2 nM after 72 hrs by propidium iodide staining based flow cytometry (reference value: 18.86%); format: functional, U-87MG ATCC
[16] = Cell cycle arrest in human U87 cells assessed as accumulation at S phase at 0.5 nM after 72 hrs by propidium iodide staining based flow cytometry (reference value: 27.03%); format: functional, U-87MG ATCC
[17] = Cell cycle arrest in human U87 cells assessed as accumulation at S phase at 1 nM after 72 hrs by propidium iodide staining based flow cytometry (reference value: 27.03%); format: functional, U-87MG ATCC
[18] = Cell cycle arrest in human U87 cells assessed as accumulation at S phase at 2 nM after 72 hrs by propidium iodide staining based flow cytometry (reference value: 27.03%); format: functional, U-87MG ATCC
[19] = Induction of apoptosis in human U87 cells assessed as viable cells at 0.5 nM measured after 72 hrs by Annexin V-APC/7-AAD staining based flow cytometry (reference value: 92.71%); format: functional, U-87MG ATCC; conditions: U-87 MG, read-out: Activity
[20] = Induction of apoptosis in human U87 cells assessed as viable cells at 1 nM measured after 72 hrs by Annexin V-APC/7-AAD staining based flow cytometry (reference value: 92.71%); format: functional, U-87MG ATCC; conditions: U-87 MG, read-out: Activity
[21] = Induction of apoptosis in human U87 cells assessed as viable cells at 2 nM measured after 72 hrs by Annexin V-APC/7-AAD staining based flow cytometry (reference value: 92.71%); format: functional, U-87MG ATCC; conditions: U-87 MG, read-out: Activity
[22] = Induction of apoptosis in human U87 cells assessed as early apoptotic cells at 0.5 nM measured after 72 hrs by Annexin V-APC/7-AAD staining based flow cytometry (reference value: 3.82%); format: functional, U-87MG ATCC
[23] = Induction of apoptosis in human U87 cells assessed as early apoptotic cells at 1 nM measured after 72 hrs by Annexin V-APC/7-AAD staining based flow cytometry (reference value: 3.82%); format: functional, U-87MG ATCC
[24] = Induction of apoptosis in human U87 cells assessed as early apoptotic cells at 2 nM measured after 72 hrs by Annexin V-APC/7-AAD staining based flow cytometry (reference value: 3.82%); format: functional, U-87MG ATCC
[25] = Induction of apoptosis in human U87 cells assessed as late apoptotic cells at 0.5 nM measured after 72 hrs by Annexin V-APC/7-AAD staining based flow cytometry (reference value: 3.02%); format: functional, U-87MG ATCC
[26] = Induction of apoptosis in human U87 cells assessed as late apoptotic cells at 1 nM measured after 72 hrs by Annexin V-APC/7-AAD staining based flow cytometry (reference value: 3.02%); format: functional, U-87MG ATCC
[27] = Induction of apoptosis in human U87 cells assessed as late apoptotic cells at 2 nM measured after 72 hrs by Annexin V-APC/7-AAD staining based flow cytometry (reference value: 3.02%); format: functional, U-87MG ATCC
[28] = Induction of apoptosis in human U87 cells assessed as necrotic cells at 0.5 nM measured after 72 hrs by Annexin V-APC/7-AAD staining based flow cytometry (reference value: 0.44%); format: functional, U-87MG ATCC
[29] = Induction of apoptosis in human U87 cells assessed as necrotic cells at 1 nM measured after 72 hrs by Annexin V-APC/7-AAD staining based flow cytometry (reference value: 0.44%); format: functional, U-87MG ATCC
[30] = Induction of apoptosis in human U87 cells assessed as necrotic cells at 2 nM measured after 72 hrs by Annexin V-APC/7-AAD staining based flow cytometry (reference value: 0.44%); format: functional, U-87MG ATCC
[31] = species on record: Homo sapiens; assay: Inhibition of PI3K/Akt activation in human U87 cells assessed as increase in pro-apoptotic Bax protein expression after 72 hrs by Western blot method; format: cell-based
[32] = species on record: Homo sapiens; assay: Inhibition of PI3K/Akt activation in human U87 cells assessed as increase in caspase-3 level after 72 hrs by Western blot method; format: cell-based
[33] = target: RAC-alpha serine/threonine-protein kinase (Homo sapiens) (UniProt P31749); assay: Inhibition of Akt phosphorylation in human U87 cells after 72 hrs by Western blot method; format: cell-based
RAC-alpha serine/threonine-protein kinase (Homo sapiens), sequence (P31749 whole entry): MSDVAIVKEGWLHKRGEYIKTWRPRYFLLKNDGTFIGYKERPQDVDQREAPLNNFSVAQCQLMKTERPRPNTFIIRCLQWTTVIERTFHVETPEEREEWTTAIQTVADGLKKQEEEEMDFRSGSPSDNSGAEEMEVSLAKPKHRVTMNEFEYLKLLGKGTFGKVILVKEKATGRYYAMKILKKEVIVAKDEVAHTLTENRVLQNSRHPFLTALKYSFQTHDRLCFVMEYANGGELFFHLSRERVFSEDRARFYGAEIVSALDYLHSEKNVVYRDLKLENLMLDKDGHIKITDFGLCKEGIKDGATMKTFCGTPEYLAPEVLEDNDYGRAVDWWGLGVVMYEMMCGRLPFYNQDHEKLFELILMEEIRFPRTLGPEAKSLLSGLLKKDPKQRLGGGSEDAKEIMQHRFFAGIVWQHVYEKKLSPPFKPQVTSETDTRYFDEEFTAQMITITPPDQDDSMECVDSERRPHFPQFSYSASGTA

[34] = tested on: H22; assay: Antitumor activity against […] cells xenografted in ICR mouse assessed as tumor growth inhibition at 30 mg/kg, iv qd for 3 weeks relative to control; format: functional; conditions: 504 h, read-out: TGI
[35] = tested on: H22; assay: Antitumor activity against […] cells xenografted in iv dosed ICR mouse assessed as tumor growth inhibition administered qd for 3 weeks; format: functional, organism-based
[36] = tested on: Mus musculus; assay: Toxicity in ICR mouse xenografted with […] cells assessed as body weight at 30 mg/kg, iv administered qd for 3 weeks (reference value: 22.9 +/- 0.4 g); format: organism-based; conditions: in vivo, 504 h

- IC50 [1]: 11.8 µM
- IC50 [2]: 10.9 µM
Structure (SMILES): C=C[C@]1(C)CC[C@@H](C(=C)COC(=O)[C@H](C)NC(=O)CCC(=O)OCCCCOc2no[n+]([O-])c2S(=O)(=O)c2ccccc2)C[C@H]1C(=C)C
- IC50 [3]: 0.114 µM

- IC50 [1]: 2.92 µM
- IC50 [2]: 3.64 µM
Structure (SMILES): C=C[C@]1(C)CC[C@@H](C(=C)COC(=O)[C@@H](N)CC(=O)OCCCCOc2no[n+]([O-])c2S(=O)(=O)c2ccccc2)C[C@H]1C(=C)C
- IC50 [3]: 0.124 µM
- Activity [4]: Active

- IC50 [1]: 9.97 µM
- IC50 [2]: 10.8 µM
Structure (SMILES): C=C[C@]1(C)CC[C@@H](C(=C)COC(=O)[C@H](Cc2ccccc2)NC(=O)CCC(=O)OCCCCOc2no[n+]([O-])c2S(=O)(=O)c2ccccc2)C[C@H]1C(=C)C
- IC50 [3]: 0.061 µM

- IC50 [1]: 27.8 µM
- IC50 [2]: 21.9 µM
Structure (SMILES): C=C[C@]1(C)CC[C@@H](C(=C)COC(=O)c2ccccc2C(=O)OCCCCOc2no[n+]([O-])c2S(=O)(=O)c2ccccc2)C[C@H]1C(=C)C
- IC50 [3]: 0.081 µM
- Activity [4]: inactive

- IC50 [1]: 8.76 µM
- IC50 [2]: 10.9 µM
Structure (SMILES): C=C[C@]1(C)CC[C@@H](C(=C)COC(=O)CCC(=O)OCCCCOc2no[n+]([O-])c2S(=O)(=O)c2ccccc2)C[C@H]1C(=C)C
- IC50 [3]: 0.007 µM

- IC50 [1]: 7.78 µM
- IC50 [2]: 8.86 µM
Structure (SMILES): C=C[C@]1(C)CC[C@@H](C(=C)COC(=O)CCNC(=O)CCC(=O)OCCCCOc2no[n+]([O-])c2S(=O)(=O)c2ccccc2)C[C@H]1C(=C)C
- IC50 [3]: 0.058 µM

- IC50 [1]: 4.66 µM
- IC50 [2]: 5.78 µM
Structure (SMILES): C=C[C@]1(C)CC[C@@H](C(=C)COC(=O)CCC(=O)OCCOCCOc2no[n+]([O-])c2S(=O)(=O)c2ccccc2)C[C@H]1C(=C)C
- IC50 [3]: 0.024 µM

Structure (SMILES): O=C(O)CCC(=O)OCCOc1c(S(=O)(=O)c2ccccc2)no[n+]1[O-]
- IC50 [3]: 32.2 µM

- IC50 [1]: 3.66 µM
- IC50 [2]: 4.25 µM
Structure (SMILES): C=C[C@]1(C)CC[C@@H](C(=C)COC(=O)[C@@H](NC(=O)CCC(=O)OCCCCOc2no[n+]([O-])c2S(=O)(=O)c2ccccc2)[C@@H](C)CC)C[C@H]1C(=C)C
- IC50 [3]: 0.01 µM
- Activity [4]: Active

- IC50 [1]: 15.3 µM
- IC50 [2]: 10.2 µM
Structure (SMILES): C=C[C@]1(C)CC[C@@H](C(=C)COC(=O)CNC(=O)CCC(=O)OCCCCOc2no[n+]([O-])c2S(=O)(=O)c2ccccc2)C[C@H]1C(=C)C
- IC50 [3]: 0.173 µM

- IC50 [1]: 236 µM
- IC50 [2]: 214 µM
Structure (SMILES): C=C[C@]1(C)CC[C@@H](C(=C)C)C[C@H]1C(=C)C
- IC50 [3]: 180 µM
- inhibition in vivo at 60 mg/kg [5]: 49.6%
- Activity [6]: 20 g

- IC50 [1]: 4.97 µM
- IC50 [2]: 3.78 µM
Structure (SMILES): C=C[C@]1(C)CC[C@@H](C(=C)COC(=O)CCC(=O)OCC#CCOc2no[n+]([O-])c2S(=O)(=O)c2ccccc2)C[C@H]1C(=C)C
- IC50 [3]: 0.085 µM

- IC50 [1]: 9.49 µM
- IC50 [2]: 11.2 µM
Structure (SMILES): C=C[C@]1(C)CC[C@@H](C(=C)COC(=O)[C@@H]2CCCN2C(=O)CCC(=O)OCCCCOc2no[n+]([O-])c2S(=O)(=O)c2ccccc2)C[C@H]1C(=C)C
- IC50 [3]: 0.055 µM

- IC50 [1]: 3.18 µM
- IC50 [2]: 4.94 µM
- inhibition [33]: Dose-dependent effect
Structure (SMILES): C=C[C@]1(C)CC[C@@H](C(=C)COC(=O)CCC(=O)OCCOc2no[n+]([O-])c2S(=O)(=O)c2ccccc2)C[C@H]1C(=C)C
- inhibition [7]: Dose-dependent effect
- IC50 [3]: 0.002 µM
- IC50 [8]: 30.4 µM
- Activity [4]: Active
- Activity [9]: Dose-dependent effect
- Activity [10]: 50.4%
- Activity [11]: 34.97%
- Activity [12]: 26.96%
- Activity [13]: 22.91%
- Activity [14]: 33.35%
- Activity [15]: 47.99%
- Activity [16]: 26.69%
- Activity [17]: 31.68%
- Activity [18]: 25.04%
- viability at 0.0005 µM [19]: 80.4%
- viability at 0.001 µM [20]: 64.9%
- viability at 0.002 µM [21]: 46%
- Activity [22]: 8.16%
- Activity [23]: 25.03%
- Activity [24]: 34.63%
- Activity [25]: 10.16%
- Activity [26]: 9.91%
- Activity [27]: 19.07%
- Activity [28]: 1.25%
- Activity [29]: 0.19%
- Activity [30]: 0.25%
- inhibition [31]: Dose-dependent effect
- inhibition [32]: Dose-dependent effect
- inhibition in vivo at 30 mg/kg [34]: 50.2%
- inhibition in vivo at 60 mg/kg [5]: 64.8%
- TGI [35]: Dose-dependent effect
- Activity [6]: 20.9 g
- Activity [36]: 21.6 g

Structure (SMILES): C=C[C@]1(C)CC[C@@H](C(=C)CO)C[C@H]1C(=C)C
- IC50 [3]: 198 µM

- IC50 [1]: 22.9 µM
- IC50 [2]: 23.2 µM
Structure (SMILES): C=C[C@]1(C)CC[C@@H](C(=C)COC(=O)CCC(=O)OCCCCCCOc2no[n+]([O-])c2S(=O)(=O)c2ccccc2)C[C@H]1C(=C)C
- IC50 [3]: 0.154 µM
- Activity [4]: inactive
